{
  "source": "patent US10111950B2",
  "about": "“Modified glycolipids and methods of making and using the same” (Vaccinex, Inc., priority 2013, dated 2018)",
  "origin": "cited, not measured here",
  "system": "iNKT cells",
  "settings": "repeated stimulation; cited from earlier work",
  "data": [
    {"smiles": "CCCCCCCCCCCCCCCCCCCCCCCCCC(=O)N[C@@H](CO[C@H]1O[C@H](CO)[C@H](O)[C@H](O)[C@H]1O)[C@H](O)[C@H](O)CCCCCCCCCCCCCC", "note": "[αGalCer, α-galactosylceramide]", "values": [
      {"measurement": "iNKT cell response to stimulation with free αGalCer", "value": "results in iNKT cell anergy"}
    ]}
  ]
}
